# Laboratory results published in patent publication US20130345073A1, “USE OF ALPHA-2-MACROGLOBULIN FOR DETERMINING OSTEONECROSIS DISEASE STATUS AND FOR SCREENING THERAPEUTIC AGENTS FOR PREVENTING OR TREATING OSTEONECROSIS” (priority 2012, published 2013).
# Read-outs that look alike come from different tables or passages of the source.
# Columns and labels:
# [1] = system: A2M gene expression in human umbilical vein endothelial cells (HUVEC); assay: A2M gene expression in treated HUVEC cells (qPCR); format: cell-based; conditions: for effect on A2M overexpression induced by dexamethasone: combined with dexamethasone, PD98059 20 μM, withaferin 1 μM (FIG. 4D)
# Description: HUVECs were purchased from Lonza (Walkersville, Md., USA) and cultured in endothelial basal medium (EBM-2media (Lonza) supplemented with microvascular additives (excluding hydrocortisone): human endothelial growth factor, 5% fetal bovine serum (FBS), vascular endothelial growth factor, human fibroblast growth factor type B, R3 insulin-like growth factor 1, ascorbic acid, heparin and the appropriate antibiotics gentamicin and amphotericin B (as per the supplier's protocol). HUVECs cells were cultured to near confluence (80%), trypsinized and seeded on 6 wells plates (10^5 cells/well). After 24 h incubation, cells were treated with dexamethasone (0.25 to 1 mM, Sigma-Aldrich, St-Louis, Mo., USA) for different time periods (between 4h to 48h). For experiments relating to the signaling pathways, different inhibitors were used: PD98059 (20 μM, Sigma) a MAPK inhibitor; withaferin (1 μM, Tocris, Bristol, UK), an NFkB PI3K inhibitor, and thrombin (1.5 U/ml; Calbiochem, San Diego, Calif., USA) an NFkB agonist. After incubation cells were harvested and RNA extracted using Trisol® (Invitrogen, Burlington, ON, Canada). RNA were then reverse transcribed using high capacity RNA to cDNA kit (Applied biosystems, Carlsbad, Calif., USA). A2M expression levels were then determined by qPCR using Taqman probes and master mix (Applied Biosystems)
# First, a dose response curve of HUVEC cells treated 48h using different concentration of Dex (dexamethasone) (0.1 mM to 1 mM) was generated. […] Then, a time response curve (4h to 24h) of HUVEC cells treated with 1 mM dexamethasone was generated. […] The effect of dexamethasone, PD and whitaferin on A2M expression of HUVEC cells was also determined.
# Wistar Kyoto rats = conditions: male, rat, in vivo, 6 months
# Description: (§1) Experimental animals and their maintenance. Forty Wistar Kyoto (WKY) rats (ages 4 weeks old) were purchased from Charles River Laboratories (Pointe-Claire, QC, Canada). The rats were tagged and housed in plastic cages (2 to 4 animals per cage) under standard laboratory conditions with a 12-hour dark/12-hour light cycle, a constant temperature of 20° C., and humidity of 48%. Food and water were provided ad libitum with a standard rodent diet. The weight of the rats were followed before and after the implant of a prednisone pellet for the first 3 consecutive weeks and then every month until the end of the experiment. All experiments were conducted under an animal protocol approved by the McGill Animal Care Department.
# Slow-release prednisone pellets (Innovative Research of America, Sarasota Florida, USA) were implanted subcutaneously into 24 Wistar Kyoto rats (12 males and 12 females rats) at the age of 5 weeks. […]
# The rats were sacrificed with an overdose of ketamine/xylazine at the age of 30 weeks. […] Tissue samples were sectioned parasagitally with a rotary microtome at 4 to 5 microns thickness, stained with hematoxylin and eosin and evaluated by light microscopy.
# The tissue samples were analyzed in a blinded fashion by two experienced bone pathologists. […]
# [2] = system: Fisher and Wistar Kyoto (WK) rats; conditions: rat, in vivo
# Description: as §1, with “Eighteen Wistar” for “Experimental animals and their maintenance. Forty Wistar”, “(ages 12-16 weeks old) and eighteen Fisher (ages 12-16” for “(ages 4”
# Slow-release prednisone pellets (Innovative Research of America, Sarasota Florida, USA) were implanted subcutaneously into 12 Wistar Kyoto rats (all males) and 12 Fisher rats (all males) at the age of 8-12 weeks. Each pellet was implanted underneath the skin on the lateral side of the neck by surgically making an incision and developing a pocket about 2 cm beyond the incision site. The pellet was placed in the pocket and the incision was sutured. Based on the manufacturer's instructions the pellet releases a constant dose of the drug subcutaneously. To maintain a constant dosage during the 6 month period of the experiment, second and third pellet implantations were performed using the same procedure at 2 and 3 months respectively. The average dose release from the pellet was equivalent to 1.5 mg/kg/day for the period of 6 months. The dose of corticosteroids and the duration of treatment were chosen based on clinical experience. For the control group, 6 age-matched Wistar Kyoto (all males) and 6 age-matched Fisher (all males) rats received placebo pellets (Innovative Research of America) introduced through the same surgical technique.
# The rats were sacrificed with an overdose of ketamine/xylazine at the age of 32-36 weeks. Tissue samples were obtained from the proximal femur containing the femoral head. Some samples were put in RNALater™ (QIAGEN Inc., Mississauga, ON, Canada) for RNA extraction and some samples were fixed for histological examination. Bone samples were fixed in 10% neutral buffered formalin, then decalcified in 4% ethylenediamine tetraacetic acid (pH 7.2) (Sigma-Aldrich, St. Louis, Mo., USA). The specimens were processed routinely and embedded in paraffin. Tissue samples were sectioned parasagitally with a rotary microtome at 4 to 5 microns thickness, stained with hematoxylin and eosin and evaluated by light microscopy.
# The tissue samples were analyzed in a blinded fashion by two experienced bone pathologists. […] While the development of ON proceeds through various clinically identifiable stages, it was preferable for this study to detect early as well as the late stages of the condition. With this objective in mind, the criteria of Arlet [Arlet, 1993] was adopted namely degeneration, necrosis, and disappearance of marrow cells as well as the nuclear disappearance and hypochromasia of trabecular osteocytes as early signs of ON [Arlet, 1993]. Early signs of ON was also considered when apoptosis occurred in the osteocytes and osteoblasts. Positivity for apoptosis was defined by the authors as more than three osteocytes and/or osteoblasts recognized in a high magnification field based on previous studies [Weinstein et al, 2000; Shibahara et al., 2000].
# Terminal dexoynucleotidyl transferase (TdT) mediated deoxyuridine triphosphate biotin nick end labeling (TUNEL) was used to detect fragmented DNA known to be associated with apoptotic cell death. TUNEL assay on paraffin-embedded tissue sections was performed with the DeadEnd™ Colorimetric TUNEL System (Promega, Madison, Wis., USA) as recommended by the manufacturer. […]
# [3] = system: Fisher and Wistar Kyoto (WK) rats; assay: Alpha-2-Macroglobulin (A2M) level in the blood by rat A2M ELISA; format: in vivo
# Description: Slow-release prednisone pellets (Innovative Research of America, Sarasota Florida, USA) were implanted subcutaneously into 12 Wistar Kyoto rats (all males) and 12 Fisher rats (all males) at the age of 8-12 weeks. Each pellet was implanted underneath the skin on the lateral side of the neck by surgically making an incision and developing a pocket about 2 cm beyond the incision site. The pellet was placed in the pocket and the incision was sutured. Based on the manufacturer's instructions the pellet releases a constant dose of the drug subcutaneously. To maintain a constant dosage during the 6 month period of the experiment, second and third pellet implantations were performed using the same procedure at 2 and 3 months respectively. The average dose release from the pellet was equivalent to 1.5 mg/kg/day for the period of 6 months. The dose of corticosteroids and the duration of treatment were chosen based on clinical experience. For the control group, 6 age-matched Wistar Kyoto (all males) and 6 age-matched Fisher (all males) rats received placebo pellets (Innovative Research of America) introduced through the same surgical technique. All rats were weighed upon their entry into the animal facility and were then weighed on a weekly basis until the end of the experimental period. Serum glucose measurements were performed at 2 week intervals via saphenous venipuncture using a portable glucometer (ContourTM glucometer, Bayer). Furthermore, 1 ml of whole blood was collected from each animal once a month via sublingual venipuncture under general anesthesia following a previously described technique. Following venipuncture, the blood was transferred to standard EDTA tubes, centrifuged for 8 minutes at 3600 rpm and the serum was separated and initially stored at -20° Celsius. Monthly serum […] concentrations were determined using a Rat Alpha 2-Marcoglobulin Enzyme Linked Immunoassay (ELISA) (Kamiya Biomedical Company, Seattle, USA) according to the manufacturer's instructions. This measurement was performed by an author blinded to treatment allocation. Fisher and Wistar Kyoto (WK) rats received steroid/placebo treatment for 5 and 6 months, respectively and blood was collected monthly. The Alpha-2-Macroglobulin […]) level in the blood was detected using rat […] ELISA kit (Immunology Consultants Laboratory, USA). Rats were divided into groups based on the treatment as well as the results from histopathology and TUNEL evaluation. AVN(+) was judged to be either TUNEL (+) or (++), or AVN(-) by histopathology study on at least one hip. […] However, as shown on FIG. 3C, the […] level in the blood of steroid-treated Fisher rats (only those considered AVN(+)) increased at 2 months after steroid treatment, and they were consider AVN(+). […]
# Fisher and WK rats = assay: Micro-computerized tomography scanning of femoral head cross-sections; format: in vivo, rat
# Description: At the conclusion of the 180 day experimental period, all prednisone and placebo animals were euthanized via brief isoflurane exposure followed by cardiac puncture. Immediately following euthanasia, both femurs in each animal were dissected, with care taken to preserve the integrity of the femoral cartilage during hip disarticulation. The femurs were then osteotomized at the mid-diaphysis and the proximal portion was immersed initially in 4% paraformaldehyde for 24 hours, washed with sterile phosphate buffered saline (PBS) for the following 48 hours, and then preserved in PBS at −5° Celsius.
# Micro computed-tomography (μCT) scanning was performed on each harvested femur using a Skyscan1172 instrument equipped with a 1.3 Mp camera (Skyscan, Kontich, Belgium). […] 2-dimensional serial cross sections were assembled into 3D reconstructions and analyzed using Skyscan™ software (CTAn version 2.0.0.1) supplied with the instrument. […]
# In the present example, an analysis of the epiphyseal trabecular bone adjacent to the subchondral plate was performed. […] This shape permitted the largest area of epiphyseal bone to be measured without artefact from the adjacent rodent growth plate or cortical cap. […]
# Four widely utilized morphometric indices measuring bone volume and bone connectivity were measured from the binarized 3-dimensional volume of interest. […] Total bone porosity (TBP) was also measured. […]
# [4] = system: Fisher and Wistar Kyoto (WK) rats; conditions: male, rat, in vivo, 5 months
smiles,measurement,setting,value
"COc1cccc(-c2cc(=O)c3ccccc3o2)c1N [PD, PD98059]",effect on A2M overexpression induced by dexamethasone,[1]; HUVEC,repression of A2M gene expression
"C[C@]12C=CC(=O)C=C1CC[C@@H]1[C@@H]2C(=O)C[C@@]2(C)[C@H]1CC[C@]2(O)C(=O)CO [Prednisone, prednisone]",incidence of the disease (ON),Wistar Kyoto rats,up to 75%
same,Total TUNEL(++) hips,"[2]; male, Wistar Kyoto, 6 months",9
same,Total TUNEL(−) hips,"[2]; male, Wistar Kyoto, 6 months",1
same,number of hips AVN(+) TUNEL(−),"[2]; male, Wistar Kyoto, 6 months",1
same,number of hips AVN(−) TUNEL(+),"[2]; male, Wistar Kyoto, 6 months",1
same,number of hips AVN(−) TUNEL(++),"[2]; male, Wistar Kyoto, 6 months",2
same,apoptosis (TUNEL positive cells) in bilateral femora,[2],more profound
same,A2M level in the blood,"[3]; Fisher rats, 5 months after the beginning of the steroid treatment (FIG. 3E)",declined
same,A2M level in the blood,"[3]; steroid-treated Fisher rats AVN(+), at 2 months after steroid treatment (FIG. 3C)",increased
same,time of peak A2M level in the blood after the beginning of the treatment,"[3]; steroid-treated WK rats, all AVN(+) (FIG. 3D)",3 month
same,A2M level in the blood,"[3]; steroid-treated WK rats, at least 6 months after the beginning of the treatment (FIG. 3E)",remained higher than placebo-treated group
same,micro-CT findings of femoral head,Fisher and WK rats; Fisher rats following steroid administration (FIG. 5A),no articular erosion
same,"rats with subchondral porosity, small and erratic trabeculae and isotropic trabecular arrangement",Fisher and WK rats; steroid-treated WK rats (FIG. 5B),9 out of 12
same,Total TUNEL(++) hips,[4],7
same,Total TUNEL(−) hips,[4],2
same,number of hips AVN(+) TUNEL(−),[4],1
"CC1=C(CO)C(=O)O[C@@H]([C@@H](C)[C@H]2CC[C@H]3[C@@H]4C[C@H]5O[C@]56[C@@H](O)C=CC(=O)[C@]6(C)[C@H]4CC[C@]23C)C1 [whitaferin, withaferin]",effect on A2M overexpression induced by dexamethasone,[1]; HUVEC,repression of A2M gene expression
C[C@@H]1C[C@H]2[C@@H]3CCC4=CC(=O)C=C[C@]4(C)[C@@]3(F)[C@@H](O)C[C@]2(C)[C@@]1(O)C(=O)CO [dexamethasone],concentration of maximum effect on A2M expression,"[1]; HUVEC treated 48h, dose response 0.1 mM to 1 mM (FIG. 4A)",0.5 mM
same,time of maximum effect on A2M expression,"[1]; HUVEC, 1 mM dexamethasone, time response 4h to 24h (FIG. 4B)",24 h
